Experimental data: patent publication US20220243211A1, “PEPTIDE NUCLEIC ACID COMPOSITIONS WITH MODIFIED HOOGSTEEN BINDING SEGMENTS AND METHODS OF USE THEREOF” (Yale University, priority 2019, published 2022)

Assays:
[1] = Zeta potential and hydrodynamic diameter of formulated NPs by dynamic light scattering; format: physicochemical; conditions: NPs containing PNA/donor DNA, PBS buffer, n = 3; for Z Av Diameter: dynamic light scattering
Description: Blank NPs containing no PNA and a mismatch donor DNA as a control were prepared as a control. The mismatched donor DNA was purposely added into blank NPs because addition of donor DNA helps to produce a similar surface charge on the control NPs as on the test NPs encapsulated with PNA/donor DNA combinations. […] All NP in the diameters were in the range of 200-350 nm, as measured by dynamic light scattering (Table 1), consistent with previous measurements (McNeer, et al., Nat Commun 6, 6952 (2015), Fields, et al., Adv Healthc Mater 4, 361-366 (2015), Fields, et al., J Control Release 164, 41-48 (2012)). PNA/DNA-loaded NPs were cationic (Fields, et al., Adv Healthc Mater 4, 361-366 (2015), Fields, et al., J Control Release 164, 41-48 (2012)) for PBAE/PLGA/MPG NPs (Table 1).

CFBE cells at ALI = experiment: Ussing chamber assay, short circuit current; format: cell-based, human; conditions: apical PBAE/PLGA/MPG NPs, 2 mg/dose, 3 doses
Description: FIG. 5A is a Schematic of treatment of cells grown at ALI. FIG. 5B is a bar graph showing Ussing Chamber assay results. CFBE cells at ALI were treated apically at 2 mg/dose for 3 doses with 48 hours between each dose **p<0.001; ***p<0.002. FIG. 5C is a dot plot showing digital droplet (ddPCR) quantification of gene editing in genomic DNA isolated from CFBE cells at ALI treated apically at 2 mg/dose for 3 doses with 48 hours between each dose ***p<0.002.
Ussing experiments were performed as previously described (Bruscia, et al., Proc Natl Acad Sci USA 103, 2965-2970 (2006)). An Easy Mount Ussing Chamber System (Physiologic Instruments) was heated to 37° C. Electrode tips were prepared by partial filling with 3% agar in 3M KCl and subsequently backfilling with a 3M KCl. The Ussing chambers are equipped with current and voltage electrodes loaded with these tips. […] The transepithelial voltage and membrane resistance was measured during each pulse. Under these conditions, short circuit current (Isc) was calculated using Ohm's Law at the timepoint wherein the basolateral chamber was filled with a chloride-free solution following 20 minutes of equilibration in Kreb's Bicarbonate Ringers. […]

[2] = test system: F508del CFTR gene in CFBE cells; experiment: Allele-specific PCR for gene modification; format: cell-based, human; conditions: CFBE cells treated with PNA/donor DNA NPs
Description: Genomic DNA was harvested from cells and purified using the Wizard Genomic DNA Purification kit (Promega, Madison Wis.). Equal amounts of genomic DNA from each sample were subjected to allele-specific PCR (ASPCR), with a gene-specific reverse primer, and an allele-specific forward primer. PCR was performed using a Eppendorf master cycler X50. PCR products were separated on a 1% agarose gel and visualized using a gel imager.
AS-PCR conditions are as follows. Platinum Taq polymerase (Invitrogen, Carlsbad Calif.) was used for PCR reactions: 5 uL betaine, 4.25 uL water, 2.5 uL 10× Platinum Taq PCR buffer, 1.25 uL 50 mM MgCl2, 0.5 uL dNTPs, 0.5 uL each primer at 10 uM, 0.5 uL Platinum Taq polymerase, and 10 uL of genomic DNA at 40 ng/uL. PCR cycler conditions for human CFTR were as follows: 95° C. 2 min, 94° C. 30 sec, 69° C. 1 min, 72° C. 1 min, 94° C. 30 sec, 68° C. 1 min, 72° C. 1 min, 94° C. 30 sec, 67° C. 1 min, 72° C. 1 min, 94° C. 30 sec, 66° C. 1 min, 72° C. 1 min, 94° C. 30 sec, 65° C. 1 min, 72° C. 1 min, [94° C. 30 sec, 65° C. 1 min, 72° C. 1 min]×35 cycles, 72° C. 2 min, hold at 4° C. 1.
Gene-specific reverse primer: (reverse complement starting from nt 80162): 5′ […]

| Substance | Zeta Potential [1] [mV] | Z Av Diameter [1] [nm] | Isc (short circuit current), cAMP stimulated (CFBE cells at ALI) | gene modification by allele-specific PCR [2] |
| --- | --- | --- | --- | --- |
| H-KKK-TJTJJTTT-OOO-TTTCCTCTATGGGTAAG-KKK-NH2 [γhCF PNA-h] (TNTNNTTTTTTCCTCTATGGGTAAG; listed as DNA, chemistry not fully specified) [tail clamp PNA targeting human CFTR gene with MPγ monomers in Hoogsteen domain] | 13.3 | 293.2 | marked increase | had the desired gene modification |
| H-KKK-TJTJJTTT-OOO-TTTCCTCTATGGGTAAG-KKK-NH2 [hCF PNA] (TNTNNTTTTTTCCTCTATGGGTAAG; listed as DNA, chemistry not fully specified) | 14.2 | 291.7 | minimum Isc | had the desired gene modification |
